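48-hour exposure; five concentrations; linearly interpolated endpoints. GI50 is the concentration that inhibits growth by half.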 The source made the active and inactive calls. No stated cut-off is given here; in the data, active = GI50 up to about 1.1 µM and inactive = higher.
Experiments:
Test in all cases: NCI-60 cell line screen, 48 h
UACC-257 = test system: UACC-257
HT-29 = test system: HT-29
HCT-116 = test system: HCT-116
OVCAR-3 = test system: OVCAR-3
KM12 = test system: KM12
SK-MEL-5 = test system: SK-MEL-5
CCRF-CEM = test system: CCRF-CEM
OVCAR-4 = test system: OVCAR-4
COLO 205 = test system: COLO 205
IGROV-1 = test system: IGROV-1
SF-268 = test system: SF-268
SNB-19 = test system: SNB-19
SW-620 = test system: SW-620
SK-OV-3 = test system: SK-OV-3
SK-MEL-28 = test system: SK-MEL-28
NCI-H460 = test system: NCI-H460
UACC-62 = test system: UACC-62
A549 = test system: A549
RXF 393 = test system: RXF 393
LOX IMVI = test system: LOX IMVI

| SMILES | GI50 (UACC-257) | GI50 (HT-29) | GI50 (HCT-116) | GI50 (OVCAR-3) | GI50 (KM12) | GI50 (SK-MEL-5) | GI50 (CCRF-CEM) | GI50 (OVCAR-4) | GI50 (COLO 205) | GI50 (IGROV-1) | GI50 (SF-268) | GI50 (SNB-19) | GI50 (SW-620) | GI50 (SK-OV-3) | GI50 (SK-MEL-28) | GI50 (NCI-H460) | GI50 (UACC-62) | GI50 (A549) | GI50 (RXF 393) | GI50 (LOX IMVI) |
| --- | --- | --- | --- | --- | --- | --- | --- | --- | --- | --- | --- | --- | --- | --- | --- | --- | --- | --- | --- | --- |
| O=C(O)Cc1ccc(N2N=C(c3ccccc3)CC2=O)cc1 | > 100 µM (inactive) | > 100 µM (inactive) | > 100 µM (inactive) | > 100 µM (inactive) | > 100 µM (inactive) | > 100 µM (inactive) | > 100 µM (inactive) | > 100 µM (inactive) | > 100 µM (inactive) | > 100 µM (inactive) | > 100 µM (inactive) | > 100 µM (inactive) | > 100 µM (inactive) | > 100 µM (inactive) | > 100 µM (inactive) | > 100 µM (inactive) | > 100 µM (inactive) |  |  |  |
| O=C1C(Cl)N(c2ccc([N+](=O)[O-])cc2)C1c1c[nH]c2ccccc12 (stereo not given) | 64.1 µM (inactive) | 48.1 µM (inactive) | 55.5 µM (inactive) | 47.8 µM (inactive) | 66.2 µM (inactive) | > 100 µM (inactive) | 9.25 µM (inactive) | 53 µM (inactive) | > 100 µM (inactive) | 77.6 µM (inactive) | > 100 µM (inactive) | > 100 µM (inactive) | > 100 µM (inactive) | 56.6 µM (inactive) | > 100 µM (inactive) | 41.7 µM (inactive) | 51.3 µM (inactive) | > 100 µM (inactive) | > 100 µM (inactive) |  |
| CCCCSCCC(N)P(=O)(O)O (stereo not given) | > 100 µM (inactive) | > 100 µM (inactive) | > 100 µM (inactive) | > 100 µM (inactive) |  | > 100 µM (inactive) | > 100 µM (inactive) | > 100 µM (inactive) | > 100 µM (inactive) | > 100 µM (inactive) |  | > 100 µM (inactive) | > 100 µM (inactive) | > 100 µM (inactive) | > 100 µM (inactive) | > 100 µM (inactive) |  | > 100 µM (inactive) |  | > 100 µM (inactive) |
| Cc1nc2c(n1C)C(=O)c1nc(CBr)[nH]c(=O)c1C2=O |  | 39.4 µM (inactive) | > 100 µM (inactive) |  |  | 20.3 µM (inactive) | > 100 µM (inactive) |  | 51.5 µM (inactive) | > 100 µM (inactive) | > 100 µM (inactive) | > 100 µM (inactive) | > 100 µM (inactive) | 75.7 µM (inactive) | > 100 µM (inactive) | > 100 µM (inactive) | > 100 µM (inactive) | > 100 µM (inactive) | > 100 µM (inactive) | 46.5 µM (inactive) |
| COc1cccc(CC2Cc3ccccc3CC(=O)N2)c1 (stereo not given) | 29.2 µM (inactive) | 92.7 µM (inactive) | 49 µM (inactive) | 20.4 µM (inactive) | 22 µM (inactive) | 20.6 µM (inactive) | 58.3 µM (inactive) | > 100 µM (inactive) | 74.1 µM (inactive) | 16.9 µM (inactive) | 46.2 µM (inactive) | 90.8 µM (inactive) | 85.1 µM (inactive) | 62.8 µM (inactive) | 54.2 µM (inactive) | 20.9 µM (inactive) | 39.8 µM (inactive) | 34.1 µM (inactive) | 26.8 µM (inactive) | 10.1 µM (inactive) |
| COc1cccc(NC(=O)CC(=O)NN2C(=O)/C(=C/c3ccc(N(CCC#N)CCC#N)cc3)N=C2c2cc([N+](=O)[O-])ccc2Cl)c1 |  |  | > 100 µM (inactive) | > 100 µM (inactive) | > 100 µM (inactive) | 42.2 µM (inactive) | 0.499 µM (active) | 99.1 µM (inactive) | > 100 µM (inactive) | > 100 µM (inactive) | > 100 µM (inactive) | > 100 µM (inactive) | > 100 µM (inactive) | > 100 µM (inactive) | > 100 µM (inactive) |  | 64.7 µM (inactive) | > 100 µM (inactive) | > 100 µM (inactive) | > 100 µM (inactive) |
| CC(=O)Oc1ccccc1[C@H]1CC(=O)C[C@H](c2ccccc2OC(C)=O)C12C(=O)c1ccccc1C2=O |  | 29.2 µM (inactive) | 29.4 µM (inactive) | 22.1 µM (inactive) | 59.6 µM (inactive) | 22.4 µM (inactive) | 10.9 µM (inactive) | 65.6 µM (inactive) | 22.3 µM (inactive) | 44.5 µM (inactive) |  | 60.4 µM (inactive) |  | 43 µM (inactive) | 17 µM (inactive) | 19.1 µM (inactive) | 13 µM (inactive) |  | 24.6 µM (inactive) |  |
| Cc1[nH]c(=O)[nH]c(=O)c1/C=C/C(=O)NC(CO)CC(C)C (stereo not given) | > 375 µM (inactive) | 222 µM (inactive) | 322 µM (inactive) | 164 µM (inactive) | > 375 µM (inactive) | > 375 µM (inactive) | 181 µM (inactive) | 214 µM (inactive) | 242 µM (inactive) | > 375 µM (inactive) | 231 µM (inactive) | 356 µM (inactive) | 351 µM (inactive) | > 300 µM (inactive) | 305 µM (inactive) | 163 µM (inactive) | > 375 µM (inactive) | 349 µM (inactive) | > 375 µM (inactive) | > 375 µM (inactive) |
